pIC50: −log10 of the molar value. Where two headings read alike, the source gives them in different places.
Assays:
CYP3A4-T = CYP3A4-T (Homo sapiens (Human), UniProt P08684); assay: CYP450 inhibition activity assay (Vivid kit) CYP3A4-T; details: CYP450 subtype (μM) 3A4-T (IC50)
Description: (§1) VividR CYP450 Screening Kits can be used to evaluate the effects on CYP450 subtypes (CYP1A2, CYP2D6, CYP2C9, CYP2C19, CYP3A4-T and CYP3A4-M) and the substrate VividR in the kit can be metabolizd to a product which can emit strong fluorescence in an aqueous solution by specific CYP450 enzymes.
(§2) 1. The compounds to be tested and positive compound were added to corresponding wells and DMSO was added to control wells.
(§3) 2. CYP450 enzyme was added to the compounds to be tested, positive compound and DMSO control wells. The enzyme dilution was used to replace enzyme and added to DMSO wells as test background. The mixture was vibrated and mixed for 1 minute, and then incubated at room temperature for 20 minutes.
(§4) 3. NADP^+ regeneration system and the substrate were added to initiate the reaction and incubated at room temperature for 60 minutes.

CYP3A4-M = CYP3A4-M (Homo sapiens (Human), UniProt P08684); assay: CYP450 inhibition activity assay (Vivid kit) CYP3A4-M; details: CYP450 subtype (μM) 3A4-M (IC50)
Description: as §1, §2, §3, §4

CYP1A2 = CYP1A2 (Homo sapiens (Human), UniProt P05177); assay: CYP450 inhibition activity assay (Vivid kit) CYP1A2; assay type: in vitro ADME; details: CYP450 subtype (μM) 1A2 (IC50)
CYP2C19 = CYP2C19 (Homo sapiens (Human), UniProt P33261); assay: CYP450 inhibition activity assay (Vivid kit) CYP2C19; assay type: in vitro ADME; details: CYP450 subtype (μM) 2C19 (IC50)
[1] = rat, in vivo
Description: The administration volume was 10 mL/kg and drug was formulated with DMSO/Tween 80/physiological saline (5:5:90, v/v/v). […] 2 h after dosing, the rats ate together.
At above time points, 0.3 ml of venous blood was taken from retrobulbar venous plexus of the rat and loaded into EDTA-2K anticoagulative tube. After centrifuged at 11000 rpm for 5 mm, the plasma was separated and frozen at −20° C. in a refrigerator.
The concentration of each compound in rat plasma was determined by LC/MS/MS.
The pharmacokinetic parameters after administration were calculated by using non-compartment model of WinNonlin 5.3 software (Pharsight Corporation, USA).

hERG = hERG (Homo sapiens (Human), UniProt Q12809)
Description: CHO-hERG cells which have been incubated overnight were added with sample buffer and incubated for 90 minutes at room temperature in darkness.
The sample buffer was removed and assay buffer was added.
The compound is added to the cell plate and incubated for 20 minutes in darkness.
Cell plate was placed into FDSS. The fluorescence signal was recorded every second for 10 seconds. Exciting buffer was added to the cells at the 10th second and the fluorescence signal was recorded every second for 180 seconds

CYP2C9 = CYP2C9 (Homo sapiens (Human), UniProt P11712); assay: CYP450 inhibition activity assay (Vivid kit) CYP2C9; assay type: in vitro ADME; details: CYP450 subtype (μM) 2C9 (IC50)
CCR5 protein = assay: Thermal stability of protein test (CPM-assay); assay type: binding; details: for Tm (° C.): thermal stability of CCR5 protein with compound, CPM dye; for protein stability effect in words, versus positive control compound: conclusion from Table 2
Outline: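 Purified, concentrated CCR5 protein (3–5 μg) was mixed with CPM dye and held 20 min at room temperature. It was then heated from 4 to 90 °C at 1 °C/min while fluorescence (excitation 387 nm, emission 436 nm) from CPM binding to exposed free cysteines was recorded. Tm is the midpoint of the signal change.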

CCR5 = CCR5 (Homo sapiens (Human), UniProt P51681); assay: Calcium flux inhibition experiment; assay type: cell-based; details: for pIC50: HEK293/CCR5-Gα16 cell line, calcium flux, read-out: CCR5 IC50; for calcium influx inhibition effect in words, versus positive control compounds: conclusion from Table 1
Chain of CCR5 (P51681 whole entry): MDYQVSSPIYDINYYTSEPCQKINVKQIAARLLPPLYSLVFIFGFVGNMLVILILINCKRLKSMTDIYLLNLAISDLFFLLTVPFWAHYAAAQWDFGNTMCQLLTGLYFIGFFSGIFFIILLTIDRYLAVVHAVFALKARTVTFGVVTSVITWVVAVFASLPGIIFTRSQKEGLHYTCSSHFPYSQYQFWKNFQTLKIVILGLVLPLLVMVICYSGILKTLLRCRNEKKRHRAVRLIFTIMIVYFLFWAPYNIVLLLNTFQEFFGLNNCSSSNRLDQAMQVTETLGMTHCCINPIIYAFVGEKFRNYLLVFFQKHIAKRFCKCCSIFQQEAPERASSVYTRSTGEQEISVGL

Chain of hERG (Q12809 whole entry): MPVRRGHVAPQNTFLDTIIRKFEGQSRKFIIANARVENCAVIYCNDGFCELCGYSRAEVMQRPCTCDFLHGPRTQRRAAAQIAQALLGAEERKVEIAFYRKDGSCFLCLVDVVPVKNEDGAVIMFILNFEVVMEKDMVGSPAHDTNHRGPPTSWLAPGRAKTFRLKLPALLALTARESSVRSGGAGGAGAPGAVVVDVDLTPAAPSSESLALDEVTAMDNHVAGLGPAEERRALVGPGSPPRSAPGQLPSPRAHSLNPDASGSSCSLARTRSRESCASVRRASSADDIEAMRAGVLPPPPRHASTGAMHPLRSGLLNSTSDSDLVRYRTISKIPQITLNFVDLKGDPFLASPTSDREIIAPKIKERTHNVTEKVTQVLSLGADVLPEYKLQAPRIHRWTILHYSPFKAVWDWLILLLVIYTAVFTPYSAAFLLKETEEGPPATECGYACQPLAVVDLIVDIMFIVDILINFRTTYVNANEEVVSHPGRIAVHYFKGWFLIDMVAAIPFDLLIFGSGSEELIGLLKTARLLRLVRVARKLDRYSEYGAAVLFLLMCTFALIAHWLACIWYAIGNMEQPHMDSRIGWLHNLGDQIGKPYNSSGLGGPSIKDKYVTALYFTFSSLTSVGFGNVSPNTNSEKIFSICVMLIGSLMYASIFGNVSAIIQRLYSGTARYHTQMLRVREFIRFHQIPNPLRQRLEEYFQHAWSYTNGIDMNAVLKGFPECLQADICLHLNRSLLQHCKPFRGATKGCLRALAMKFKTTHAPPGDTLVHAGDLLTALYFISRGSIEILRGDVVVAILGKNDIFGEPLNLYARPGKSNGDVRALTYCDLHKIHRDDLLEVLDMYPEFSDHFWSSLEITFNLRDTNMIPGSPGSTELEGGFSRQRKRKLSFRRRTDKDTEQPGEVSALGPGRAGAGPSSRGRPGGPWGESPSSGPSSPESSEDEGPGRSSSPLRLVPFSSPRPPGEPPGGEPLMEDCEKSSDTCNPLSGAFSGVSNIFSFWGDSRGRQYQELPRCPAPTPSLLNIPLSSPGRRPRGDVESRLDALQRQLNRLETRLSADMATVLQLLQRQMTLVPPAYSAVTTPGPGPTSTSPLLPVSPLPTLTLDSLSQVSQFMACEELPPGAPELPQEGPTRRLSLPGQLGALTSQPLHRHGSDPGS
Chain of CYP3A4-M (P08684 whole entry): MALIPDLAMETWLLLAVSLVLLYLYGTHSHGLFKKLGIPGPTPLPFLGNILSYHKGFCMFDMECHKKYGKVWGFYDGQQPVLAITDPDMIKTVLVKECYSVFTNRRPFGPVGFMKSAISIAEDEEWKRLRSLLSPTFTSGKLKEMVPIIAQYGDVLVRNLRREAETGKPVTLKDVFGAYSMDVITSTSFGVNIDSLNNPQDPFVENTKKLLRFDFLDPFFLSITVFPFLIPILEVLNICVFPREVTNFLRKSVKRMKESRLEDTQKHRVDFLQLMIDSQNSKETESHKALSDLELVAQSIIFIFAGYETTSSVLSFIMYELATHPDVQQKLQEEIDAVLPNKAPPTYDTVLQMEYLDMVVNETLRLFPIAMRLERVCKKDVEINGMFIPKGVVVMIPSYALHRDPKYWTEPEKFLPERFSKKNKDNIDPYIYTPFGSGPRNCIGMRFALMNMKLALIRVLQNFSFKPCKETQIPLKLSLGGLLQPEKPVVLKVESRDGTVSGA
Chain of CYP3A4-T (P08684 whole entry): as above
Chain of CYP1A2 (P05177 whole entry): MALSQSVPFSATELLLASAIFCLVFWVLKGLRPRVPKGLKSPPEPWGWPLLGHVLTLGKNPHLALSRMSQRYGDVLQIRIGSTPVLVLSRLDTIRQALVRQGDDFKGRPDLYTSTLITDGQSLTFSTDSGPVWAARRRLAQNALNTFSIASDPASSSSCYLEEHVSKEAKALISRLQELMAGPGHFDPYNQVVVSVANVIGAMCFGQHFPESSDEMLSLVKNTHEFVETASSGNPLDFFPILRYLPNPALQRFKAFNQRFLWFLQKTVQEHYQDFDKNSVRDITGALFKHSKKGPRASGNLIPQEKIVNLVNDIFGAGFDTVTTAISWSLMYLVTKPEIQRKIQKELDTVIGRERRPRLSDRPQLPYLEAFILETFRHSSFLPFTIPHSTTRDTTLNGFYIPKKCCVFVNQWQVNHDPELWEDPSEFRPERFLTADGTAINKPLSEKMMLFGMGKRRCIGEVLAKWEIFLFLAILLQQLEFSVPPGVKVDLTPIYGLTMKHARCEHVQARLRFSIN
Chain of CYP2C19 (P33261 whole entry): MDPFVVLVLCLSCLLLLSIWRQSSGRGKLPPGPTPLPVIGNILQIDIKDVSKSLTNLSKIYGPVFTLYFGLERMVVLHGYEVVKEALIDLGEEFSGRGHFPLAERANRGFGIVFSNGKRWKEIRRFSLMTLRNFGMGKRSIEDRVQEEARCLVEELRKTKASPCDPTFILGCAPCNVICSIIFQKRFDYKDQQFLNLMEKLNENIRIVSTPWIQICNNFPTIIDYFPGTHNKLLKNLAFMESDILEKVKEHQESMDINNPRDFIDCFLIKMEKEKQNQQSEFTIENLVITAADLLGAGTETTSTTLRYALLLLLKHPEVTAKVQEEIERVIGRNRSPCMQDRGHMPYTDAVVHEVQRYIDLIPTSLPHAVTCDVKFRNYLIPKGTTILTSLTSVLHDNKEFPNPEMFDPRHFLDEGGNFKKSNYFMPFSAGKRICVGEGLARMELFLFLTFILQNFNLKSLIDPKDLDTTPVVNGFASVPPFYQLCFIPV
Chain of CYP2C9 (P11712 whole entry): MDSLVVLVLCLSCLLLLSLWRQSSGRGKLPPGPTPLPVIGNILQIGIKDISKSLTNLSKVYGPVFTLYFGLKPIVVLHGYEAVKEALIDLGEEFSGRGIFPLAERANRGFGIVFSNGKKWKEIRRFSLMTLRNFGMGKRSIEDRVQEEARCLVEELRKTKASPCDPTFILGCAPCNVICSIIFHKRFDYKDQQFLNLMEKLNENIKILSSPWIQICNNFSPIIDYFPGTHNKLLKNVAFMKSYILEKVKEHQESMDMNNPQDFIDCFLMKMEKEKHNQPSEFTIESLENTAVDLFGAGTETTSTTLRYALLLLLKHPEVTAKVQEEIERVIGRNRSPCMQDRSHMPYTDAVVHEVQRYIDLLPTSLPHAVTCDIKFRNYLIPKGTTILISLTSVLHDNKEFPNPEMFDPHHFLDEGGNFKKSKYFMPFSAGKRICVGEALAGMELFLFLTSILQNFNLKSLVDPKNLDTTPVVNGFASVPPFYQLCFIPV

Molecule `Cc1ccc([C@H](CCN2C3CCC2CC(n2c(C)nnc2C(C)C)C3)NC(=O)C2CCC(F)(F)CC2)s1` (stereo partly drawn) [Compound 29, 4,4-difluoro-N-[(1S)-3-[exo-3-(3-isopropyl-5-methyl-4H-1,2,4-triazol-4-yl)-8-azabicyclo[3.2.1]octane-8-yl]-1-(5-methylthiophen-2-yl)propyl]cyclohexane-1-carboxamide] has an IC50 (CYP3A4-T) of 23.4 µM, an IC50 (CYP3A4-M) of 10.9 µM and an IC50 (CYP1A2) of over 25 µM. For the same molecule, the IC50 (CYP2C19) was over 25 µM, the “AUC0-t ng/mL * h” value ([1]; male, 10 mg/kg) was 2330.2 ng·h/mL and the “AUC0-t ng/mL * h” value ([1]; male, po, 20 mg/kg) was 1870.7 ng·h/mL. The “CLz” value ([1]; 10 mg/kg) was 71.5 mL/min/kg, the pIC50 (hERG) was 5.07 and the “hERG inhibition activity in words, versus positive control compounds” value (hERG) was “better that those of positive control compounds”. It also gave an IC50 (CYP2C9) of over 25 µM.
In the case of `Cc1nnc(C(C)C)n1C1CCN(CC[C@H](NC(=O)C2CCCC2)c2cccs2)CC1` [Compound 17, N-[(1S)-3-[4-(3-isopropyl-5-methyl-4H-1,2,4-triazol-4-yl)-piperidin-1-yl]-1-(thiophen-2-yl)propyl]cyclopentane-1-carboxamide], the IC50 (CYP3A4-T) was over 25 µM, the IC50 (CYP3A4-M) was over 25 µM and the IC50 (CYP1A2) was over 25 µM. The “Tm (° C.)” value (CCR5 protein) was 66.97 °C, the IC50 (CYP2C19) was over 25 µM and the pIC50 (CCR5) was 8.59. The “calcium influx inhibition effect in words, versus positive control compounds” value (CCR5) was “better than the positive control compounds” and the IC50 (CYP2C9) was over 25 µM.
With `Cc1nnc(C(C)C)n1C1CC2CCC(C1)N2CC[C@H](NC(=O)C1CCC(F)(F)CC1)c1ccsc1` (stereo partly drawn) [Compound 22, 4,4-difluoro-N-[(1S)-3-[exo-3-(3-isopropyl-5-methyl-4H-1,2,4-triazol-4-yl)-8-azabicyclo[3.2.1]octane-8-yl]-1-(thiophen-3-yl)propyl]cyclohexane-1-carboxamide] the IC50 (CYP3A4-T) was over 25 µM, the IC50 (CYP3A4-M) was over 25 µM and the IC50 (CYP1A2) was over 25 µM. For the same molecule, the “Tm (° C.)” value (CCR5 protein) was 68.21 °C, the IC50 (CYP2C19) was over 25 µM and the “CLz” value ([1]; male, 10 mg/kg) was 40 mL/min/kg. The “AUC0-t ng/mL * h” value ([1]; male, po, 20 mg/kg) was 1206 ng·h/mL, the pIC50 (CCR5) was 8.98 and the “calcium influx inhibition effect in words, versus positive control compounds” value (CCR5) was “better than the positive control compounds”. For the same molecule, the “hERG inhibition activity in words, versus positive control compounds” value (hERG) was “better that those of positive control compounds” and the IC50 (CYP2C9) was over 25 µM.
With `Cc1nnc(C(C)C)n1C1CC2CCC(C1)N2CC[C@H](NC(=O)C1CCCC1)c1cccs1` (stereo partly drawn) [Compound 18, N-[(1S)-3-[exo-3-(3-isopropyl-5-methyl-4H-1,2,4-triazol-4-yl)-8-azabicyclo[3.2.1]octane-8-yl]-1-(thiophen-2-yl)propyl]cyclopentane-1-carboxamide] the IC50 (CYP3A4-T) was over 25 µM, the IC50 (CYP3A4-M) was over 25 µM and the IC50 (CYP1A2) was over 25 µM. For the same molecule, the “protein stability effect in words, versus positive control compound” value (CCR5 protein) was “comparable with the positive control compound”, the “Tm (° C.)” value (CCR5 protein) was 71.73 °C and the IC50 (CYP2C19) was over 25 µM. The “CLz” value ([1]; male, 10 mg/kg) was 104 mL/min/kg, the “AUC0-t ng/mL * h” value ([1]; male, po, 20 mg/kg) was 2801.1 ng·h/mL and the pIC50 (CCR5) was 8.43. The “calcium influx inhibition effect in words, versus positive control compounds” value (CCR5) was “better than the positive control compounds” and the IC50 (CYP2C9) was over 25 µM.
`Cc1nnc(C(C)C)n1C1CC2CCC(C1)N2CC[C@H](NC(=O)C1CCCCC1)c1cccs1` (stereo partly drawn) [Compound 16] showed an IC50 (CYP3A4-T) of 21.7 µM, an IC50 (CYP3A4-M) of 12.3 µM and an IC50 (CYP1A2) of over 25 µM. The “protein stability effect in words, versus positive control compound” value (CCR5 protein) was “comparable with the positive control compound”, the “Tm (° C.)” value (CCR5 protein) was 71.32 °C and the IC50 (CYP2C19) was over 25 µM. For the same molecule, the “CLz” value ([1]; male, 10 mg/kg) was 32.7 mL/min/kg, the “AUC0-t ng/mL * h” value ([1]; male, po, 20 mg/kg) was 1512.3 ng·h/mL and the pIC50 (CCR5) was 8.65. For the same molecule, the “calcium influx inhibition effect in words, versus positive control compounds” value (CCR5) was “better than the positive control compounds”, the pIC50 (hERG; human) was 5.52 and the IC50 (CYP2C9) was over 25 µM.
For `Cc1nnc(C(C)C)n1C1CC2CCC(C1)N2CC[C@H](NC(=O)C1CCC(F)(F)CC1)c1cccs1` (stereo partly drawn) [Compound 14, 4,4-difluoro-N-[(1S)-3-[exo-3-(3-isopropyl-5-methyl-4H-1,2,4-triazol-4-yl)-8-azabicyclo[3.2.1]octane-8-yl]-1-(thiophen-2-yl)propyl]cyclohexane-1-carboxamide], the “Tm (° C.)” value (CCR5 protein) was 68.10 °C, the “CLz” value ([1]; male, 10 mg/kg) was 23.7 mL/min/kg and the “AUC0-t ng/mL * h” value ([1]; male, po, 20 mg/kg) was 1108 ng·h/mL. The pIC50 (CCR5) was 8.63 and the “calcium influx inhibition effect in words, versus positive control compounds” value (CCR5) was “better than the positive control compounds”.
